{
  "source": "patent US6881741B2",
  "about": "(ViroChem Pharma Inc., priority 2001, dated 2005)",
  "key": {"[1]": {"biological_target": "recombinant HCV NS5B (HCV RNA-dependent RNA polymerase) (Hepatitis C virus genotype 1b, UniProt P26663)", "sequence (P26663 2420-3010 limits assumed)": "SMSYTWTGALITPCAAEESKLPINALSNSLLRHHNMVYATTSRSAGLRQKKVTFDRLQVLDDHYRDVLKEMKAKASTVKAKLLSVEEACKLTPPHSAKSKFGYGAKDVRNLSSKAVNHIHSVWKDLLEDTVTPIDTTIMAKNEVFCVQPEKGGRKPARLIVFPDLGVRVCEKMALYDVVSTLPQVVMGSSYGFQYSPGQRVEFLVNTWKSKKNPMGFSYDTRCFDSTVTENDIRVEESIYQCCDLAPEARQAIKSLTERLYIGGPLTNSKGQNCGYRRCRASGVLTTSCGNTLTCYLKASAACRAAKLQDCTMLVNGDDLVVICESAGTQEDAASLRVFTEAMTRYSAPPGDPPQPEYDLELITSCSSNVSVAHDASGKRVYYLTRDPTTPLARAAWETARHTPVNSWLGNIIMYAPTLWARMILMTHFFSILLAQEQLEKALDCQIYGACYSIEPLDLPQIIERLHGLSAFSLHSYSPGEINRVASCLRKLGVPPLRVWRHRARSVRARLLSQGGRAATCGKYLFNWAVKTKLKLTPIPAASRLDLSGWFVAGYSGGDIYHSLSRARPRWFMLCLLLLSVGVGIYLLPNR", "assay": "biochemical"}, "[2]": {"biological_target": "T1, HCV NS3 enzyme (ATPase activity of HCV NS3 helicase) (Hepatitis C virus genotype 1b, UniProt P26663)", "T1 sequence (P26663 1027-1657 limits assumed)": "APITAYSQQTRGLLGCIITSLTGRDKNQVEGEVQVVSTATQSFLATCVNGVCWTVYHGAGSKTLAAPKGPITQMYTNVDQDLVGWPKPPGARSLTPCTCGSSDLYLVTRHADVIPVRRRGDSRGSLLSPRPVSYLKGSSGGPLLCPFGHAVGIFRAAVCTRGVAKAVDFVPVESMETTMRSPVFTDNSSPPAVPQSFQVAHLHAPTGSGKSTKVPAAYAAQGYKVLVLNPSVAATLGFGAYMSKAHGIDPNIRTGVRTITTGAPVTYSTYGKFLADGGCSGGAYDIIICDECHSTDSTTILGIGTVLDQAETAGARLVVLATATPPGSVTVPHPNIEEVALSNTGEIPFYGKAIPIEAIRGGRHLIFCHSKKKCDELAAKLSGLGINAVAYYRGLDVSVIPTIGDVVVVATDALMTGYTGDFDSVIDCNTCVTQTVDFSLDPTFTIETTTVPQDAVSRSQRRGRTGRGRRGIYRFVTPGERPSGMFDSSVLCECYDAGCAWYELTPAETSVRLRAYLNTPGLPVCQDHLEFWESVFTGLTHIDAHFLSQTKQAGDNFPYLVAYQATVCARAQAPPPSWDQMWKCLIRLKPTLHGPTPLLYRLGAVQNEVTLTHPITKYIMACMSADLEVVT", "assay": "ATPase activity of HCV NS3 helicase, HPLC Assay", "assay_type": "biochemical", "details": "ADP produced measured by paired-ion HPLC, 1 nM enzyme, read-out: Anti-ATPase (HPLC method) EC50", "protocol": "(§1) Evaluation of Analogues for measurement of ATPase activity of HCV NS3 helicase\nThe measurement of HCV NS3 ATPase activity was performed by measuring the amount of ADP produced during the conversion of ATP to ADP by the HCV NS3 enzyme using paired-ion HPLC on a reverse phase column. […]. The mobile phase was an isocratic solution of 0.15 M triethylamine, 6% methanol, and phosphoric acid to pH 5.5. ADP and ATP peaks were resolved using the Aqua 5μ, C18, 125 Å, (150×4.6 mm) reverse phase column. The extent of ATP conversion to ADP was evaluated by measuring the area under the ADP peak produced which was detected at 259 nm. The amount of ADP was corrected for the presence of ADP contaminant in the original ATP solution. […] The IC50 was determined from dose-response curves using six to eight concentrations per compound. Curves were fitted to data points using a non-linear regression analysis, and IC50s were interpolated from the resulting curves using GraphPad Prism software, version 2.0 (GraphPad Software Inc, San Diego, Calif.)."}, "[3]": {"biological_target": "T1, HCV NS3 enzyme (ATPase activity of HCV NS3 helicase)", "assay": "ATPase activity of HCV NS3 helicase, Malachite Green Assay", "assay_type": "biochemical", "details": "free inorganic phosphate release, 30 min at 37 C, 200 μM ATP, 3 nM enzyme, read-out: Anti-ATPase (Malachite Green assay) EC50", "protocol": "as §1\nThe measurement of ATPase activity was performed by measuring the amount of free inorganic phosphate released during the conversion of ATP to ADP by the HCV NS3 ATPase activity. The assay is as follows: In a 96-well microtiter-plate, compounds were dissolved at various concentrations in a final volume of 25 μl of ATPase buffer containing 400 μM ATP. The enzymatic reaction was initiated by the addition of 25 μl of ATPase buffer containing 6 nM of HCV NS3 enzyme without ATP to the wells followed by an incubation of 30 min. at 37 C. Essentially, the final concentration of the ATPase buffer components are as follows: 44 mM MOPS pH 7.0, 8.8 mM NaCl, 2.2 mM MgCl2, 125 μg/ml poly A, 1% DMSO, 200 μM ATP, and 3 nM HCV NS3 enzyme. The reaction was stopped by the addition of 100 μl of Biomol Green™ reagent (BIOMOL® Research Laboratories Inc., Plymouth Meeting, Pa.). In order to allow the development of the green color, the plate was incubated for 15 min. at room temperature. Then the plate was read on a micro-plate reader at 620 nm. […] The signal recorded was also corrected from the background signal obtained with control samples with compound only. The IC50 was determined from dose-response curves using six to eight concentrations per compound. […]"}, "[4]": {"details": "related polymerase activity (Example 27 list), read-out: IC50"}, "[5]": {"details": "HCV polymerase activity, list of compounds of Example 27, read-out: IC50 (polymerase activity)"}},
  "note": "Where two headings read alike, the source gives them in different places.",
  "data": [
    {"smiles": "COc1cccc(S(=O)(=O)Nc2cc(-c3ccc(CC(C)C)cc3)sc2C(=O)O)c1", "note": "[Compound #225]", "values": [
      {"measurement": "IC50", "setting": "[1]; [4]", "value": "> 20", "unit": "µM"},
      {"measurement": "EC50", "setting": "[2]", "value": "> 20", "unit": "µM"}
    ]},
    {"smiles": "CC(C)Cc1ccc(-c2cc(NS(=O)(=O)c3ccc(-c4cc(C(F)(F)F)on4)s3)c(C(=O)O)s2)cc1", "note": "[Compound #581, 5-(4-Isobutyl-phenyl)-3-[5-(5-trifluoromethyl-isoxazol-3-yl)-thiophene-2-sulfonylamino]-thiophene-2-carboxylic acid]", "values": [
      {"measurement": "EC50", "setting": "[2]", "value": "5 to 20", "unit": "µM"}
    ]},
    {"smiles": "CC(C)Cc1ccc(-c2cc(NS(=O)(=O)c3cc(OCC(F)(F)F)ccc3OCC(F)(F)F)c(C(=O)O)s2)cc1", "note": "[Compound #227, 3-[2,5-Bis-(2,2,2-trifluoroethoxy)-benzenesulfonylamino]-5-(4-isobutyl-phenyl)-thiophene-2-carboxylic acid]", "values": [
      {"measurement": "IC50", "setting": "[1]; [4]", "value": "> 20", "unit": "µM"},
      {"measurement": "EC50", "setting": "[2]", "value": "> 20", "unit": "µM"}
    ]},
    {"smiles": "CC(C)Cc1ccc(-c2cc(NS(=O)(=O)c3ccc(F)c(F)c3F)c(C(=O)O)s2)cc1", "note": "[Compound #582, 5-(4-Isobutyl-phenyl)-3-(2,3,4-trifluoro-benzenesulfonylamino)-thiophene-2-carboxylic acid]", "values": [
      {"measurement": "EC50", "setting": "[2]", "value": "> 20", "unit": "µM"}
    ]},
    {"smiles": "CC(C)Cc1ccc(-c2cc(NS(=O)(=O)c3ccc(C#N)cc3Cl)c(C(=O)O)s2)cc1", "note": "[Compound #228, 3-(2-Chloro-4-cyanobenzenesulfonyl-amino)-5-(4-isobutylphenyl)-thiophene-2-carboxylic acid]", "values": [
      {"measurement": "IC50", "setting": "[1]; [4]", "value": "> 20", "unit": "µM"},
      {"measurement": "EC50", "setting": "[2]", "value": "> 20", "unit": "µM"}
    ]},
    {"smiles": "Cc1cc(S(=O)(=O)Nc2cc(-c3ccc(Cl)cc3)sc2C(=O)O)c(C)cc1Cl", "note": "[Compound #14, 3-(4-Chloro-2,5-dimethyl-benzenesulfonylamino)-5-(4-chloro-phenyl)-thiophene-2-carboxylic acid]", "values": [
      {"measurement": "EC50", "setting": "[3]", "value": "> 20", "unit": "µM"},
      {"measurement": "IC50", "setting": "[1]; [4]", "value": "< 5", "unit": "µM"}
    ]},
    {"smiles": "Cc1cc(S(=O)(=O)Nc2cc(-c3ccc(CC(C)C)cc3)sc2C(=O)O)c(C)cc1Cl", "note": "[Compound #19, 3-(4-Chloro-2,5-dimethyl-benzenesulfonylamino)-5-(4-isobutyl-phenyl)-thiophene-2-carboxylic acid]", "values": [
      {"measurement": "EC50", "setting": "[3]", "value": "< 5", "unit": "µM"},
      {"measurement": "IC50", "setting": "[1]; [4]", "value": "5 to 20", "unit": "µM"},
      {"measurement": "EC50", "setting": "[2]", "value": "5 to 20", "unit": "µM"}
    ]},
    {"smiles": "Cc1cc(Br)ccc1S(=O)(=O)Nc1cc(-c2ccc(CC(C)C)cc2)sc1C(=O)O", "note": "[Compound #224, 3-(4-Bromo-2-methylbenzenesulfonyl-amino)-5-(4-isobutylphenyl)-thiophene-2-carboxylic acid]", "values": [
      {"measurement": "IC50", "setting": "[1]; [4]", "value": "> 20", "unit": "µM"},
      {"measurement": "EC50", "setting": "[2]", "value": "5 to 20", "unit": "µM"}
    ]},
    {"smiles": "CC(C)Cc1ccc(-c2cc(NS(=O)(=O)c3ccc(Br)cc3F)c(C(=O)O)s2)cc1", "note": "[Compound #223, 3-(4-Bromo-2-fluorobenzenesulfonyl-amino)-5-(4-isobutylphenyl)-thiophene-2-carboxylic acid]", "values": [
      {"measurement": "IC50", "setting": "[1]; [4]", "value": "5 to 20", "unit": "µM"},
      {"measurement": "EC50", "setting": "[2]", "value": "< 5", "unit": "µM"}
    ]},
    {"smiles": "COc1ccc(-c2cc(NS(=O)(=O)c3ccc(C)cc3)c(C(N)=O)s2)cc1", "note": "[Compound 565, 5-(4-METHOXY-PHENYL)-3-(TOLUENE-4- SULFONYLAMINO)-THIOPHENE-2- CARBOXYLIC ACID AMIDE]", "values": [
      {"measurement": "IC50", "setting": "[1]; [5]", "value": "5 to 20", "unit": "µM"}
    ]},
    {"smiles": "CC(C)(C)c1ccc(CN(C(=O)CC2CCCC2)c2cc(-c3ccccc3)sc2C(=O)O)cc1", "note": "[Compound 442, 3-[(4-TERT-BUTYL-BENZYL)-(2- CYCLOPENTYL-ACETYL)-AMINO]-5- PHENYL-THIOPHENE-2-CARBOXYLIC ACID]", "values": [
      {"measurement": "IC50", "setting": "[1]; [5]", "value": "< 5", "unit": "µM"}
    ]},
    {"smiles": "CCCC(=O)N(Cc1ccc(F)cc1F)c1cc(-c2ccccc2)sc1C(=O)O", "note": "[Compound 496, 3-[BUTYRYL-(2,4-DIFLUORO-BENZYL)- AMINO]-5-PHENYL-THIOPHENE-2- CARBOXYLIC ACID]", "values": [
      {"measurement": "IC50", "setting": "[1]; [5]", "value": "< 5", "unit": "µM"}
    ]}
  ]
}
